{
  "source": "patent US20250127175A1",
  "about": "“ANTIMICROBIAL POLYMER COMPOSITIONS, ANTIMICROBIAL POLYMER ARTICLES, AND METHODS OF MAKING THE SAME” (CORNING INCORPORATED, priority 2021, published 2025)",
  "origin": "cited, not measured here",
  "settings": "water-soluble defined as minimum of 20 grams in 100 milliliters of water at 25° C.",
  "data": [
    {"compound": "CCCCn1cc[n+](C)c1.F[P-](F)(F)(F)(F)F", "note": "[1-butyl-3-methylimidazolium hexafluorophosphate]", "values": [
      {"measurement": "water solubility (in words)", "result": "water insoluble"}
    ]}
  ]
}
